Results on 1 compound are retold here after patent US5641789A, “Sulfonamide derivatives of benzenefused hydroxy substituted cycloalkyl and heterocyclic ring compounds” (Pfizer Inc., priority 1995, dated 1997).

The experiment has as its system PAF lethality in CD1 mice. As to the kind of experiment: PAF lethality assay. Format: in vivo. The note with it: Mus musculus; positive control; oral dosing 45 minutes before i.v. PAF; percent mortality compared to controls. How it is done:
To evaluate the active compounds of the present invention, in vivo, they are tested by the so-called PAF lethality assay procedure: Materials:
Mice: CD1 males, all approximately the same weight (about 26 grams), 12 per group.
Vehicle for oral drug dosing: EES (5% ethanol, 5% emulphor, 90% saline). Stored at room temperature.
Drugs: For routine screening at 50 mg/kg, 20 mg drug is dissolved in 4 ml EES, using sonication in a sonicator bath or grinding in a Ten Broeck (trademark) grinder to dissolve drug if necessary. If solubility is still a problem, the drug is used as a suspension.
Vehicle for i.v. Injection: Saline with 2.5 mg/ml Bovine Serum Albumin (BSA, Sigma #A4378) and 0.05 mg/ml Propranolol (Sigma #P0884). Prepared fresh daily and kept at room temperature.
Platelet Activating Factor (PAF): A […] stock solution is prepared by dissolving 1 mg PAF (Calbiochem #429460) in 0.18 ml ethanol. This stored at -20° C. and is diluted in vehicle (see above) the day of use. The concentration of PAF used is calibrated so that when injected at 0.1 ml/10 grams body weight, it will kill approximately 80% of untreated controls. This is usually about […] (a 1 to 2034 dilution from stock). […]
45 minutes before PAF injection, mice are treated orally with drug using 0.1 ml/10 grams body weight. […] Results are expressed as percent mortality as compared to controls. […]

By ED50 is commonly meant the dose at which the effect has come halfway, by size or by number of responders. A low value points to an effect at a small dose. `O=C1CCN(c2ccccc2)N1` [Phenidone]: the ED50 was about 25 mg/kg.
